This is an account of results in ChEMBL document CHEMBL4831506, “Discovery of novel trimethoxyphenylbenzo[d]oxazoles as dual tubulin/PDE4 inhibitors capable of inducing apoptosis at G2/M phase arrest in glioma and lung cancer cells” (Eur J Med Chem, 2021).

Holding throughout (type): functional, cell-based
One experiment concerns A549. As to the kind of experiment: Antiproliferative activity against human A549 cells after 48 hrs by MTT assay. Particulars: A549, 48 h. Background: Tetrazolium dyes change colour on reduction, which living cells bring about.
In a further experiment the test system is U-251. The experiment can be described thus: Antiproliferative activity against human U-251 cells after 48 hrs by MTT assay. Particulars: U-251, 48 h.
In another experiment the test system is MCF7. The experiment can be described thus: Antiproliferative activity against human MCF7 cells after 48 hrs by MTT assay. The following applies: MCF7, 48 h.
In another experiment the test system is NCI-H460. The experiment can be described thus: Antiproliferative activity against human NCI-H460 cells after 48 hrs by MTT assay. The following applies: NCI-H460, 48 h.

By IC50 is commonly meant the concentration that gives 50% inhibition. High values mean a need for much substance, low ones inhibition by little substance.

With `COc1cc2c(c(OC)c1OC)-c1ccc(OC)c(=O)cc1[C@@H](NC(C)=O)CC2` [COLCHICINE], the half-maximal inhibitory concentration (IC50) with A549 was determined as 0.024 µM; in the experiment on U-251 it was 0.017 µM; with MCF7, 0.04 µM.

Consider `COc1ccc(-c2nc3cccc(-c4cc(OC)c(OC)c(OC)c4)c3o2)cc1`, for which the IC50 in the experiment on NCI-H460 was 3.5 µM; in the experiment with A549, 2.2 µM; in the experiment with U-251, more than 25 µM; in the experiment with MCF7 it was more than 25 µM.

In the case of `COc1ccc(-c2nc3c(-c4cc(OC)c(OC)c(OC)c4)cccc3o2)cc1F`, the IC50 was 19.9 µM in the experiment with NCI-H460, more than 25 µM with A549, 19.4 µM in the experiment on U-251 and more than 25 µM in the experiment with MCF7.

As to `COc1ccc(-c2nc3c(-c4cc(OC)c(OC)c(OC)c4)cccc3o2)cc1OC`, the IC50 is 8.9 µM with NCI-H460, 20.1 µM with A549, more than 25 µM in the experiment with U-251 and more than 25 µM with MCF7.

In the case of `COc1cc(-c2cccc3nc(-c4ccc(Br)cc4)oc23)cc(OC)c1OC`, the IC50 in the experiment with NCI-H460, in the experiment on A549, in the experiment with U-251 and with MCF7 was more than 25 µM each time.

As to `COc1ccc(-c2nc3cccc(-c4cc(OC)c(OC)c(OC)c4)c3o2)cc1OC`, the IC50 with NCI-H460 was more than 25 µM; with A549 it was 2.8 µM; with U-251, 1.3 µM; in the experiment on MCF7 it was more than 25 µM.

On to `COc1cc(-c2cccc3oc(-c4cccc(F)c4)nc23)cc(OC)c1OC`, for which the half-inhibitory concentration (IC50) with NCI-H460, in the experiment with A549, in the experiment on U-251 and with MCF7 was more than 25 µM in each case.

Consider `COc1cc(-c2cccc3oc(-c4ccc(Cl)cc4)nc23)cc(OC)c1OC`, for which the IC50 was 8.6 µM in the experiment on NCI-H460, more than 25 µM in the experiment on A549, more than 25 µM in the experiment on U-251 and more than 25 µM with MCF7.

Consider `COc1cc(-c2cccc3nc(-c4cccc(F)c4)oc23)cc(OC)c1OC`, for which the IC50 was 3.3 µM with NCI-H460, 2.6 µM in the experiment with A549, 2.9 µM in the experiment with U-251 and more than 25 µM with MCF7.

With `COc1cc(-c2cccc3oc(-c4ccc(C)cc4)nc23)cc(OC)c1OC`, the IC50 with NCI-H460 was 3.1 µM; in the experiment on A549 it was 20.2 µM; in the experiment with U-251, 16.2 µM; in the experiment on MCF7, more than 25 µM.

Take `COc1ccc(-c2cccc3nc(-c4ccc5cc[nH]c5c4)oc23)c(OC)c1OC`: the IC50 with NCI-H460 was more than 25 µM; in the experiment on A549, 9.6 µM; with U-251, 9.5 µM; with MCF7 it was more than 25 µM.

As for `COc1cc(OC)cc(-c2nc3c(-c4cc(OC)c(OC)c(OC)c4)cccc3o2)c1`, the IC50 is 5.7 µM in the experiment with NCI-H460, 16.3 µM in the experiment with A549, more than 25 µM in the experiment on U-251 and more than 25 µM in the experiment with MCF7.

Regarding `COc1cc(-c2cccc3nc(-c4cccc(Cl)c4)oc23)cc(OC)c1OC`, the IC50 with NCI-H460 is more than 25 µM; in the experiment on A549, more than 25 µM; with U-251, 18.5 µM; with MCF7, more than 25 µM.

As to `COc1ccc(-c2nc3cccc(-c4cc(OC)c(OC)c(OC)c4)c3o2)cc1F`, the IC50 was 2.8 µM in the experiment on NCI-H460, 1.8 µM with A549, 1.7 µM in the experiment with U-251 and more than 25 µM in the experiment with MCF7.

With `COc1cc(-c2nc3cccc(-c4cc(OC)c(OC)c(OC)c4)c3o2)ccc1O`, the half-maximal inhibitory concentration (IC50) in the experiment with NCI-H460 is 2 µM; with A549, 15.7 µM; in the experiment on U-251, 10.3 µM; with MCF7, more than 25 µM.

For the compound `COc1cc(-c2cccc3nc(-c4ccccc4)oc23)cc(OC)c1OC`, the IC50 in the experiment with NCI-H460 was 6.8 µM; in the experiment on A549 it was 20.3 µM; in the experiment with U-251, 3.5 µM; in the experiment on MCF7, more than 25 µM.

On to `COc1cc(-c2cccc3oc(-c4ccc(F)cc4)nc23)cc(OC)c1OC`, for which the IC50 was 22.1 µM in the experiment with NCI-H460, more than 25 µM with A549, more than 25 µM in the experiment with U-251 and more than 25 µM in the experiment with MCF7.

In the case of `COc1cc(-c2cccc3nc(-c4ccc(F)cc4)oc23)cc(OC)c1OC`, the IC50 with NCI-H460 was 8.7 µM; in the experiment with A549, 8.7 µM; in the experiment with U-251 it was more than 25 µM; in the experiment with MCF7, more than 25 µM.
